Assay results as given in patent US11345712B2, “Protein-targeting compounds and pharmaceutical compositions thereof, and their therapeutic applications” (BioTheryX, Inc., priority 2019, dated 2022).

What follows are compounds tested on MOLM-13 cells (assay: MOLM-13 cell viability assay (CellTiter-Glo)). Conditions: Homo sapiens, MOLM-13, 72 h, 3 days, concentration of 1 μM, read-out: Antiproliferative Activity (inhibition, MOLM-13 cell viability).
Type: cell-based
Method in brief: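 MOLM-13 AML cells in RPMI 1640 with 10% FBS, seeded at 2,500 cells/well and exposed to compound or DMSO for 3 days at 37° C, 5% CO2. Viability read as CellTiter-Glo luminescence after 10 min shaking.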

First: O=C1CCC(N2Cc3c(CNC(=O)C(=O)c4ccc(F)cc4)cccc3C2=O)C(=O)N1 (stereo not drawn) [Compound I-81, 2-(4-fluorophenyl)-N-((2-(2,6-dioxopiperidin-3-yl)-1-oxoisoindolin-4-yl)methyl)-2-oxoacetamide]
Second: O=C1CCC(N2Cc3c(CNC(=O)C(=O)c4ccc(Br)cc4)cccc3C2=O)C(=O)N1 (stereo not drawn) [Compound I-106, 2-(4-bromophenyl)-N-((2-(2,6-dioxopiperidin-3-yl)-1-oxoisoindolin-4-yl)methyl)-2-oxoacetamide]
The cytotoxicity at 1 µM of the first is higher: 25 to 50% for the first, < 25% for the second.

Compared with `O=C1CCC(N2Cc3c(CNC(=O)C(=O)c4ccccc4F)cccc3C2=O)C(=O)N1` (stereo not drawn) [Compound I-82, 2-(2-fluorophenyl)-N-((2-(2,6-dioxopiperidin-3-yl)-1-oxoisoindolin-4-yl)methyl)-2-oxoacetamide], `O=C1CCC(N2Cc3c(CNC(=O)C(=O)c4cccc(F)c4)cccc3C2=O)C(=O)N1` (stereo not drawn) [Compound I-92, 2-(3-fluorophenyl)-N-((2-(2,6-dioxopiperidin-3-yl)-1-oxoisoindolin-4-yl)methyl)-2-oxoacetamide] is higher in cytotoxicity at 1 µM: 25 to 50% for the first, 50 to 80% for the second.

Compared with `O=C1CCC(N2Cc3cc(CNC(=O)C(=O)c4ccccc4)ccc3C2=O)C(=O)N1` (stereo not drawn) [Compound I-83, N-((2-(2,6-dioxopiperidin-3-yl)-1-oxoisoindolin-5-yl)methyl)-2-oxo-2-phenylacetamide], `O=C1CCC(N2Cc3cc(CNC(=O)C(=O)c4ccccc4F)ccc3C2=O)C(=O)N1` (stereo not drawn) [Compound I-86, N-((2-(2,6-dioxopiperidin-3-yl)-1-oxoisoindolin-5-yl)methyl)-2-oxo-2-(2-fluorophenyl)acetamide] is lower in cytotoxicity at 1 µM: > 80% for the first, 50 to 80% for the second.

Compared with `COc1cc(OC)c(C(=O)C(=O)NCc2ccc3c(c2)CN(C2CCC(=O)NC2=O)C3=O)c(OC)c1` (stereo not drawn) [Compound I-84, N-((2-(2,6-dioxopiperidin-3-yl)-1-oxoisoindolin-5-yl)methyl)-2-oxo-2-(2,4,6-trimethoxyphenyl)acetamide], `Cc1cc(C)c(C(=O)C(=O)NCc2ccc3c(c2)CN(C2CCC(=O)NC2=O)C3=O)c(C)c1` (stereo not drawn) [Compound I-85, N-((2-(2,6-dioxopiperidin-3-yl)-1-oxoisoindolin-5-yl)methyl)-2-oxo-2-(2,4,6-trimethylphenyl)acetamide] is higher in cytotoxicity at 1 µM: 25 to 50% for the first, 50 to 80% for the second.

First: O=C1CCC(N2Cc3cc(CNC(=O)C(=O)c4ccc(C(F)(F)F)cc4)ccc3C2=O)C(=O)N1 (stereo not drawn) [Compound I-87, N-((2-(2,6-dioxopiperidin-3-yl)-1-oxoisoindolin-5-yl)methyl)-2-oxo-2-(4-trifluoromethylphenyl)acetamide]
Second: COc1ccc(C(=O)C(=O)NCc2ccc3c(c2)CN(C2CCC(=O)NC2=O)C3=O)cc1 (stereo not drawn) [Compound I-89, N-((2-(2,6-dioxopiperidin-3-yl)-1-oxoisoindolin-5-yl)methyl)-2-(4-methoxyphenyl)-2-oxoacetamide]
The cytotoxicity at 1 µM of the first is lower: 25 to 50% for the first, > 80% for the second.

`O=C1CCC(N2Cc3c(CNC(=O)C(=O)c4cccc(Cl)c4)cccc3C2=O)C(=O)N1` (stereo not drawn) [Compound I-88, 2-(3-chlorophenyl)-N-((2-(2,6-dioxopiperidin-3-yl)-1-oxoisoindolin-4-yl)methyl)-2-oxoacetamide] and `COc1cccc(C(=O)C(=O)NCc2cccc3c2CN(C2CCC(=O)NC2=O)C3=O)c1` (stereo not drawn) [Compound I-94, 2-(3-methoxyphenyl)-N-((2-(2,6-dioxopiperidin-3-yl)-1-oxoisoindolin-4-yl)methyl)-2-oxoacetamide] cannot be ordered by cytotoxicity at 1 µM: < 25% for the first, < 25% for the second.

`N#Cc1ccc(C(=O)C(=O)NCc2ccc3c(c2)CN(C2CCC(=O)NC2=O)C3=O)cc1` (stereo not drawn) [Compound I-90, 2-(4-cyanophenyl)-N-((2-(2,6-dioxopiperidin-3-yl)-1-oxoisoindolin-5-yl)methyl)-2-oxoacetamide] and `O=C1CCC(N2Cc3cc(CNC(=O)C(=O)c4ccncc4)ccc3C2=O)C(=O)N1` (stereo not drawn) [Compound I-103, N-((2-(2,6-dioxopiperidin-3-yl)-1-oxoisoindolin-5-yl)methyl)-2-oxo-2-(pyridin-4-yl)acetamide] cannot be ordered by cytotoxicity at 1 µM: < 25% for the first, < 25% for the second.

`O=C1CCC(N2Cc3cc(CNC(=O)C(=O)c4cccc(Cl)c4)ccc3C2=O)C(=O)N1` (stereo not drawn) [Compound I-91, 2-(3-chlorophenyl)-N-((2-(2,6-dioxopiperidin-3-yl)-1-oxoisoindolin-5-yl)methyl)-2-oxoacetamide] and `COc1cccc(C(=O)C(=O)NCc2ccc3c(c2)CN(C2CCC(=O)NC2=O)C3=O)c1` (stereo not drawn) [Compound I-95, N-((2-(2,6-dioxopiperidin-3-yl)-1-oxoisoindolin-5-yl)methyl)-2-(3-methoxyphenyl)-2-oxoacetamide] cannot be ordered by cytotoxicity at 1 µM: > 80% for the first, > 80% for the second.

`O=C1CCC(N2Cc3cc(CNC(=O)C(=O)c4ccc(F)c(F)c4)ccc3C2=O)C(=O)N1` (stereo not drawn) [Compound I-93, 2-(3,4-difluorophenyl)-N-((2-(2,6-dioxopiperidin-3-yl)-1-oxoisoindolin-5-yl)methyl)-2-oxoacetamide] and `Cc1cc(C(C)(C)C)cc(C)c1C(=O)C(=O)NCc1ccc2c(c1)CN(C1CCC(=O)NC1=O)C2=O` (stereo not drawn) [Compound I-104, 2-(4-(tert-butyl)-2,6-dimethylphenyl)-N-((2-(2,6-dioxopiperidin-3-yl)-1-oxoisoindolin-5-yl)methyl)-2-oxoacetamide] cannot be ordered by cytotoxicity at 1 µM: > 80% for the first, > 80% for the second.

`O=C1CCC(N2Cc3c(CNC(=O)C(=O)c4ccc5ccccc5c4)cccc3C2=O)C(=O)N1` (stereo not drawn) [Compound I-96, N-((2-(2,6-dioxopiperidin-3-yl)-1-oxoisoindolin-4-yl)methyl)-2-(naphthalen-2-yl)-2-oxoacetamide] and `Cc1cc(C(C)(C)C)cc(C)c1C(=O)C(=O)NCc1cccc2c1CN(C1CCC(=O)NC1=O)C2=O` (stereo not drawn) [Compound I-105, 2-(4-(tert-butyl)-2,6-dimethylphenyl)-N-((2-(2,6-dioxopiperidin-3-yl)-1-oxoisoindolin-4-yl)methyl)-2-oxoacetamide] cannot be ordered by cytotoxicity at 1 µM: < 25% for the first, < 25% for the second.

First: Cc1ccc(N(C)C(=O)N(C)Cc2scc3c2CN(C2CCC(=O)NC2=O)C3=O)cc1Cl (stereo not drawn) [II-20, 1-(3-chloro-4-methylphenyl)-3-((5-(2,6-dioxopiperidin-3-yl)-4-oxo-5,6-dihydro-4H-thieno[3,4-c]pyrrol-1-yl)methyl)-1,3-dimethylurea]
Second: Cc1ccc(N(C)C(=O)NCc2scc3c2CN(C2CCC(=O)NC2=O)C3=O)cc1Cl (stereo not drawn) [II-22, 1-(3-chloro-4-methylphenyl)-3-((5-(2,6-dioxopiperidin-3-yl)-4-oxo-5,6-dihydro-4H-thieno[3,4-c]pyrrol-1-yl)methyl)-1-methylurea]
The cytotoxicity at 1 µM of the first is lower: < 25% for the first, 50 to 80% for the second.

First: Cc1ccc(CNC(=O)NCc2cc3c(s2)CN(C2CCC(=O)NC2=O)C3=O)cc1Cl (stereo not drawn) [II-21, 1-(3-chloro-4-methylbenzyl)-3-((5-(2,6-dioxopiperidin-3-yl)-4-oxo-5,6-dihydro-4H-thieno[2,3-c]pyrrol-2-yl)methyl)urea]
Second: Cc1ccc(CNC(=O)NCCc2scc3c2CN(C2CCC(=O)NC2=O)C3=O)cc1Cl (stereo not drawn) [II-32, 1-(3-chloro-4-methylbenzyl)-3-(2-(5-(2,6-dioxopiperidin-3-yl)-4-oxo-5,6-dihydro-4H-thieno[3,4-c]pyrrol-1-yl)ethyl)urea]
The cytotoxicity at 1 µM of the first is lower: 50 to 80% for the first, > 80% for the second.

Going from `Cc1ccc(NCCCNCc2scc3c2CN(C2CCC(=O)NC2=O)C3=O)cc1Cl` (stereo not drawn) [II-23, 3-(1-(((3-((3-chloro-4-methylphenyl)amino)propyl)amino)methyl)-4-oxo-4H-thieno[3,4-c]pyrrol-5(6H)-yl)piperidine-2,6-dione] to `Cc1ccc(NC(=O)NCCc2scc3c2CN(C2CCC(=O)NC2=O)C3=O)cc1Cl` (stereo not drawn) [II-31, 1-(3-chloro-4-methylphenyl)-3-(2-(5-(2,6-dioxopiperidin-3-yl)-4-oxo-5,6-dihydro-4H-thieno[3,4-c]pyrrol-1-yl)ethyl)urea], the cytotoxicity at 1 µM rises from < 25% to > 80%.

`Cc1ccc(CC(=O)NCc2scc3c2CN(C2CCC(=O)NC2=O)C3=O)cc1Cl` (stereo not drawn) [II-24, 2-(3-chloro-4-methylphenyl)-N-((5-(2,6-dioxopiperidin-3-yl)-4-oxo-5,6-dihydro-4H-thieno[3,4-c]pyrrol-1-yl)methyl)acetamide] and `Cc1ccc(C(F)(F)C(=O)NCc2scc3c2CN(C2CCC(=O)NC2=O)C3=O)cc1Cl` (stereo not drawn) [II-28, 2-(3-chloro-4-methylphenyl)-N-((5-(2,6-dioxopiperidin-3-yl)-4-oxo-5,6-dihydro-4H-thieno[3,4-c]pyrrol-1-yl)methyl)-2,2-difluoroacetamide] cannot be ordered by cytotoxicity at 1 µM: < 25% for the first, < 25% for the second.

`O=C(Cc1ccc(F)cc1)NCc1scc2c1CN(C1CCC(=O)NC1=O)C2=O` (stereo not drawn) [II-25, N-((5-(2,6-dioxopiperidin-3-yl)-4-oxo-5,6-dihydro-4H-thieno[3,4-c]pyrrol-1-yl)methyl)-2-(4-fluorophenyl)acetamide] and `Cc1ccc(C(F)(F)C(=O)NCc2scc3c2CN([C@H]2CCCC(=O)NC2=O)C3=O)cc1Cl` [II-29, (S)-2-(3-chloro-4-methylphenyl)-N-((5-(2,7-dioxoazepan-3-yl)-4-oxo-5,6-dihydro-4H-thieno[3,4-c]pyrrol-1-yl)methyl)-2,2-difluoroacetamide] cannot be ordered by cytotoxicity at 1 µM: < 25% for the first, < 25% for the second.

`Cc1cc(NC(=O)NCc2cc3c(s2)C(=O)N(C2CCC(=O)NC2=O)C3)ccc1N1CCOCC1` (stereo not drawn) [II-26, 1-((5-(2,6-dioxopiperidin-3-yl)-6-oxo-5,6-dihydro-4H-thieno[2,3-c]pyrrol-2-yl)methyl)-3-(3-methyl-4-morpholinophenyl)urea] and `Cc1cc(NC(=O)NCc2cc3c(s2)C(=O)N(C2CCC(=O)NC2=O)C3)ccc1N1CCCC1` (stereo not drawn) [II-27, 1-((5-(2,6-dioxopiperidin-3-yl)-6-oxo-5,6-dihydro-4H-thieno[2,3-c]pyrrol-2-yl)methyl)-3-(3-methyl-4-(pyrrolidin-1-yl)phenyl)urea] cannot be ordered by cytotoxicity at 1 µM: < 25% for the first, < 25% for the second.

For `Cc1ccc(CC(=O)NCc2cc3c(s2)C(=O)N(C2CCC(=O)NC2=O)C3)cc1Cl` (stereo not drawn) [II-30, 2-(3-chloro-4-methylphenyl)-N-((5-(2,6-dioxopiperidin-3-yl)-6-oxo-5,6-dihydro-4H-thieno[2,3-c]pyrrol-2-yl)methyl)acetamide], the cytotoxicity at 1 µM was < 25%.
